Structures are written as SMILES.

In the case of `CCCCCn1nc(-c2cccc(C(F)(F)F)c2F)c(=O)c2cccc(OC)c21`, the melting point (usually the temperature, or range, at which the solid turns liquid) is 82 to 84 °C.

On to `COC(=O)CN1CCC[C@H](OCc2cc(C(F)(F)F)cc(C(F)(F)F)c2)[C@@H]1c1ccccc1` (relative stereo), for which the melting point is 60 to 70 °C.

In turn, `Cc1ccc(N(C(=O)CCl)c2c(Cl)cccc2Cl)cc1` had a melting point of 130 °C.

As to `O=C(CSc1cccs1)C12CC3CC(CC(C3)C1)C2`, the melting point is 69 to 72 °C.

`O=c1c2c(cnn1Cc1ccccc1)C(Cc1ccccc1)NCCO2` (centres undefined) yielded a melting point of 70 °C.

For `Cc1c(-c2ccc(N)cc2)[nH]c2nccnc12`, the melting point lay in the range of 330 to 332 °C.

As to `O=C(O)C(=CNc1ccc(OCc2ccccc2)c(OCc2ccccc2)c1)C(=O)O`, the melting point is 73 to 76 °C.

Take `Nc1cc(F)ccc1C(=O)Oc1ccccc1`: the melting point lay within 69 to 70 °C.

In the case of `COc1ccc(N2CCN(C)CC2)c2c1OCC(C(=O)Nc1ccc(N3CCOCC3)cc1)C2` (centres undefined), the melting point lay in the range of 202 to 204 °C.

Regarding `Cc1nc2c(N)nc3ccccc3c2n1CCOCCNC(=O)Nc1ccccc1`, the melting point lay within 193 to 195 °C.

`O=C1N[C@@H](CSSc2ccccc2)C(=O)N2CCC[C@H]12` yielded a melting point of 120 °C.

Compound `CCCCCCSCCSc1nc(N)n[nH]1` displayed a melting point of 76.5 to 78 °C.

`OCc1c(CO)c2sc3ccccc3n2c1-c1ccc(Cl)cc1` yielded a melting point of 151 to 152 °C.

The compound `Oc1ccc(C2=CCCCCCC2)cc1` showed a melting point of 95 to 97 °C.

With `Fc1ccc(-n2ncnc2-c2ccncc2)cc1`, the melting point was in the range of 114 to 115 °C.

With `O=C(Nc1ccc(N2CCSC2)c(F)c1)OCc1ccccc1`, the melting point is 90 to 92 °C.

In turn, `c1coc(CCCCCCOc2ccc(C3=NCCO3)cc2)c1` came in with a melting point of 74 °C.

The compound `CO[C@H]1CCCC[C@@]1(OC)c1cccc(OCc2ccc3ccccc3c2)c1` (racemic) gave a melting point of 93 to 94 °C.

Turning to `COc1ccc(N2CCN(C)CC2)cc1-c1cn[nH]c1N`, the melting point fell in the range of 174 to 178 °C.

As for `Cc1cc(C2C3=C(CCS3)NC3=C2C(=O)CCC3)ccc1F` (centres undefined), the melting point is more than 260 °C.

`Cc1ccc(-c2nc(CI)c(C)o2)cc1`: the melting point lay in the range of 104 to 105 °C.

For the compound `CS(=O)c1ccc(-n2cnc3ccc(-c4nnc(C5CC5)o4)cc32)cc1` (centres undefined), the melting point was 243 to 245 °C.

`CCCN(CCCNc1ncc(Cc2ccc(C)nc2)c(=O)[nH]1)c1ccccn1` gave a melting point of 83 to 90 °C.

As for `CC(C)(C)OC(=O)NCCCCn1c(-c2ccccc2)cc2ccc(C(=O)c3cc(CC(=O)O)c(-c4ccccc4)s3)cc21`, the melting point is 167 to 169 °C.

`CCOc1nn(Cc2cc(OCc3ccc4ccccc4n3)no2)cc1CCC(=O)O` had a melting point of 123 to 124 °C.

Compound `Cc1ccc(S(=O)(=O)NC(=O)OCCc2ccc(-n3c(C4CCCCC4)nc4c(C)nc(C)cc43)cc2)cc1` registered a melting point of 168 °C.

The compound `CCCc1cc2c(cc1C=NO)OCO2` registered a melting point of 83 °C.

On to `CC(=O)Oc1ccc(NC(=O)OC(C)(C)C)cc1C(=O)O`, for which the melting point is 76 to 78 °C.

On to `COC(=O)c1c(N)c(-c2ccc(I)cc2)nc2ccc(F)cc12`, for which the melting point fell in the range of 223 to 225 °C.

Compound `CCCOC(=O)C(OC)C(=O)Nc1cc(Cl)cc(Cl)c1` (centres undefined) returned a melting point of 89 to 92 °C.

Regarding `CC(C)(O)CONC(=O)c1ccc(F)c(F)c1Nc1ccc(I)cc1Cl`, the melting point fell in the range of 140 to 153 °C.

For the compound `CC(O)c1cccc(NC(=O)NCC(=O)N(c2ccccc2)C(C)C(=O)N2CCCc3ccccc32)c1` (mixture of isomers), the melting point came out at 170 °C.

The compound `O=C(O)Cc1c(C(=O)c2ncc[nH]2)[nH]c2cc(Cl)ccc12` registered a melting point of 252 to 253 °C.

For the compound `CCc1cnc(N2CCN(C(=O)c3ccc(CNc4ncnc5ccccc45)cc3)CC2)nc1`, the melting point fell in the range of 170 to 171 °C.

For `COCC(=O)c1cc(-c2ccc(S(C)(=O)=O)cc2)n(-c2ccc(F)cc2)n1`, the melting point was 151 to 154 °C.

With `O=C(O)CCCOc1ccc(CSc2[nH]nc(NS(=O)(=O)c3c(Cl)cccc3Cl)c2-c2ccccn2)cc1`, the melting point lay within 183 to 185 °C.

For the compound `CCCCOC(=O)[C@H]1CN(c2ccc(C3CCSCC3)cc2)C(=O)O1`, the melting point was in the range of 94 to 96 °C.

On to `CSc1cccc(Nc2nc(OCC3CCCCC3)c3[nH]cnc3n2)c1`, for which the melting point was 190 to 192 °C.

`CCCC(=O)c1cnc2c(C)cccc2c1Nc1ccc(OC)cc1C`: the melting point was 114 to 115 °C.

`Nc1nc(Cl)nc2ccccc12` registered a melting point of 232 °C.

Consider `C=CCn1c(-c2cccnc2)n[nH]c1=O`, for which the melting point was 120 to 125 °C.

Turning to `O=C(O)COc1cc(F)c(Br)cc1C(=O)NCc1cccc([N+](=O)[O-])c1`, the melting point lay in the range of 169 to 172 °C.

Consider `CC(C)N1C(=O)C(=O)N(c2cc(Cl)cc(Cl)c2)S1=O` (centres undefined), for which the melting point was 109 °C.

Compound `COc1ccc(N2CCN(CCC3OCCc4ccc(Br)cc43)CC2)cc1` (centres undefined) displayed a melting point of 78 to 79 °C.

Consider `CCOC(=O)c1cn(OC)c2nc3cc(N4CC(NC)C4)c(F)cc3cc2c1=O`, for which the melting point stood at 234 °C.

`Cc1ccc(-c2ccc3c(c2)C=C(C(=O)Nc2ccc(CN4CCCCC4)cc2)CO3)cc1` yielded a melting point of 196 to 197 °C.

Compound `Cc1ccc(-c2nc(Sc3ccc(Cl)cc3)cc(N3CCN(C)CC3)n2)cc1` came in with a melting point of 104 to 105 °C.

On to `NC1=C(c2ccc(O)cc2)C(=O)c2ccc(O)cc21`, for which the melting point was 213 °C.

Regarding `O=C(N1CCOCC1)N1CCN(CCNc2ncc3ncnc(Nc4ccc(F)c(Cl)c4)c3n2)CC1`, the melting point was in the range of 163 to 168 °C.

In the case of `CCOC(=O)C(O)=Cc1cc(CCc2ccccc2)cnn1`, the melting point is 94 to 95 °C.

With `CCC(C#N)(C(N)=O)c1ccccc1` (centres undefined), the melting point was 116 to 117 °C.

In turn, `Cc1nc2c(-c3cccc(N4CCC(N5CCCC5)CC4)c3)cnn2c(N)c1-c1cccc(Cl)c1` came in with a melting point of 188 to 193 °C.

`Cc1cc(C)n(-c2cc(OS(C)(=O)=O)c(Cl)cc2F)n1` displayed a melting point of 77.5 to 79 °C.

The compound `O=C(NCCCCC1CCSS1)NCCCCC1CCSS1` (centres undefined) came in with a melting point of 115 to 116 °C.

For `COc1ccc(NS(=O)(=O)c2ccc([N+](=O)[O-])cc2)cc1`, the melting point is 173 to 175 °C.

Compound `CC(=O)Nc1ccc(N(c2ccccc2)C2(c3ccc(N(C)C)cc3)OC(=O)c3ccccc32)cc1` (centres undefined) had a melting point of 182 to 184 °C.

The compound `CC(=O)Nc1ccc(OCCCCBr)c([N+](=O)[O-])c1` showed a melting point of 192 to 194 °C.

Regarding `COC(=O)c1ccc(C=C(Br)Br)c(N)c1`, the melting point fell in the range of 97 to 99 °C.

On to `CC(=O)c1ccc(OCCCBr)c(Br)c1`, for which the melting point was 83 to 84 °C.

Compound `O=C(O)CS(=O)(=O)Oc1cccc(-c2cn3c(n2)sc2ccccc23)c1` returned a melting point of 156 to 158 °C.

With `Cc1cccc2[nH]c(=S)nc(N)c12`, the melting point was more than 250 °C.

The compound `CC1N=C(N2CCN(CCO)CC2)NN=C1c1ccccc1` (centres undefined) showed a melting point of 103 to 105 °C.

Consider `CCN1CC2OC(C3OCCO3)(C1)c1ccccc12` (centres undefined), for which the melting point lay in the range of 107 to 108 °C.

`CCOC(=O)Nc1cc(OCC)cc2c1CC(C)O2` (centres undefined): the melting point was determined as 64 °C.

Take `CCOc1cc2c(O)c(C(=O)O)cnc2nc1C`: the melting point was 259 to 261 °C.

On to `O=C(NCc1cn(-c2ccc(N3CCSCC3)c(F)c2)nn1)c1cnccn1`, for which the melting point lay in the range of 216 to 218 °C.

For `COC(=O)C(Oc1cc(O)ccc1C#N)c1ccccc1C` (racemic), the melting point was in the range of 114 to 121 °C.

`COc1ccc(S(=O)(=O)Nc2cccnc2Nc2cccc(C)c2)cc1` registered a melting point of 147 to 148 °C.

With `CC(C)c1ccc2c(c1)CCN2C(=O)Nc1cccnc1`, the melting point was in the range of 163 to 165 °C.

For `CCc1ccc(Nc2nc3cc(NC(=O)c4ccc(Cl)c(Cl)c4)ccc3o2)cc1`, the melting point is more than 250 °C.

Regarding `COP(=O)(NC1C(=O)N2C(C(=O)OCc3ccccc3)=C(C=CN(C)C)CSC12)OC` (centres undefined), the melting point was in the range of 126 to 128 °C.

The compound `CNC(=O)c1cc(NCc2c(C)cccc2C)c2nc(C)[nH]c2c1` displayed a melting point of 298 °C.

In turn, `CCN(CC)S(=O)(=O)c1cc(Cl)cc(O)c1O` gave a melting point of 62 to 64 °C.

In turn, `CS(=O)(=O)C(=C1CN(C(c2ccccc2)c2ccccc2)C1)c1cccc(OC(F)(F)F)c1` yielded a melting point of 162 °C.

As to `Cn1nc(-c2ccc(Cl)cc2)c2c(=O)n3c(nc21)SCC3`, the melting point fell in the range of 256 to 257 °C.

The compound `C=CCCCCCCCCC(=O)N1CC[C@H]2[C@H]1[C@@H](CCC)C(=O)N2S(C)(=O)=O` (relative stereo) yielded a melting point of 62 to 64.6 °C.

`Cc1nc2c(cc1Cl)C(=O)OC2=O` returned a melting point of 140 to 141 °C.

`COc1ccc(-c2ncn(C)c2-c2ccc(OC)cc2)cc1` registered a melting point of 122 °C.

Turning to `FC(F)(F)c1cc2cc3cc4cc(Sc5ccccc5)c(Sc5ccccc5)cc4cc3cc2cc1C(F)(F)F`, the melting point is more than 260 °C.

For `CCOc1nn(-c2cccc3c2OC(C)(C)C3)c(=O)o1`, the melting point fell in the range of 72 to 74 °C.

`Cn1cc2c(C3C(=O)Nc4ccc(Br)cc43)nc(Cl)nc2n1` (centres undefined) returned a melting point of more than 300 °C.

`CCCc1c(OCCCSc2ccc(C(=O)COC(C)=O)cn2)ccc(C(C)=O)c1O`: the melting point was 93 to 95 °C.

`O=C(Nc1ccccc1Oc1ccc(Cl)cc1)C1CCNCC1` showed a melting point of 138 to 140 °C.

`Cc1nc(C)n2c1CN=C(c1ccccc1Cl)c1cc(Cl)ccc1-2`: the melting point was 175 to 177 °C.

In the case of `CCCc1cc(CCC)n2nc(N3CCN(C(=O)OCC)CC3)nc2n1`, the melting point is 130 to 132 °C.

For `Cc1c(Cc2ccc(C(C)C)cc2)c2c(c(C)c1NC(=O)CC(C)(C)C)C(c1ccc(C(C)C)cc1)CO2` (centres undefined), the melting point was in the range of 157 to 158 °C.

For the compound `CCOCc1nc2c(N)nc3ccccc3c2n1CCCCS(N)(=O)=O`, the melting point lay in the range of 155 to 158 °C.

As for `CCCOc1ccccc1C=C(C=O)C(C=O)=Cc1ccccc1OCCC`, the melting point lay within 109 to 110 °C.

Take `COCCCCCCCCCCCC(=O)Nc1cccc(C(=O)O)c1`: the melting point was 169 to 171 °C.

The values above are taken from a melting point compilation (Tetko et al.; mined from patent text by program, amines drawn as free bases though some values may be those of a salt).
